# Patent US20030133905A1, “Composition for treating contact lenses in the eye” (priority 2001, published 2003)
# Biological target: T1, hen egg lysozyme (Gallus gallus, UniProt P00698)
# T1 construct: 1 mg/ml of hen egg lysozyme; from tissue; host or cells: hen egg
# Test: Stabilization of lysozyme against heat denaturation, read out as lysis of M. luteus suspension (optical density at 450 nm)
# Format: biochemical
# Conditions: saline with 20 mM buffering agent
# Protocol: Each solution included saline and 20 mM of buffering agent as identified in Table 1 below. To each test solution was added 1 mg/ml of hen egg lysozyme as well as a phosphate buffered saline (PBS) control. The test solutions were mixed slowly with a stir bar until the lysozyme was incorporated into the solutions. Five ml of each lysozyme-containing test solution was retained as the unheated control. The remaining 5 ml of each lysozyme-containing test solution were placed in glass lens vials, capped with silicone stoppers and incubated in a shaking water bath at 80° C., 40 revolutions per minute (rpm) for 1 hour. These heating conditions are sufficient to denature the lysozyme, absent a stabilization effect provided by the buffering agents. The vials were allowed to come to ambient temperature before testing. A 0.00025g/ml suspension of M. luteus was prepared from lyophilized cells in PBS. The suspension was continually mixed on a stir plate during the testing period to prevent the suspension from settling. For each set of test solutions, the following were tested (sample): a heated lysozyme-containing test solution (“lysozyme+heat”); an unheated lysozyme-containing test solution (“lysozyme/no heat”); and a test solution without lysozyme (“no lysozyme”). One ml of each sample was placed into a glass test tube to which 9 ml of M. luteus suspension was added and vortexed. A 1-ml sub-sample was placed into a disposable cuvette and evaluated on a UV-vis spectrophotometer at 450 nm. This procedure was performed for each sample at 0, 5 and 10 minutes. Each of the solutions was evaluated in triplicate. Each of the three optical density measurements from the triplicate samples was averaged. […] As shown by the test data set forth below in the Table 3, the lens drop solutions containing tromethamine were very effective at stabilizing the protein against denaturation.
# [1] = lysozyme + heat (80° C., 1 hour), 1 mg/ml lysozyme
# [2] = lysozyme/no heat, 1 mg/ml lysozyme, M. luteus suspension
# T1 sequence (P00698 19-147): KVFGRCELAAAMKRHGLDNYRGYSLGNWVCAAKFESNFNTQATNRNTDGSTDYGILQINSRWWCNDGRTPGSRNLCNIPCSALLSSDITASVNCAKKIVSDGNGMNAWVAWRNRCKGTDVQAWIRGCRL
"optical density at 450 nm, Time 0 Min [1]","optical density at 450 nm, Time 5 Min [1]","optical density at 450 nm, Time 10 Min [1]","optical density at 450 nm, Time 0 Min [2]","optical density at 450 nm, Time 5 Min [2]","optical density at 450 nm, Time 10 Min [2]","optical density at 450 nm, Time 0 Min (no lysozyme)","optical density at 450 nm, Time 5 Min (no lysozyme)","optical density at 450 nm, Time 10 Min (no lysozyme)",Compound
0.877,0.851,0.785,0.654,0.049,0.030,0.857,0.850,0.850,O=C(O)CC(O)(CC(=O)O)C(=O)O [Citrate]
0.810,0.154,0.117,0.654,0.048,0.028,0.859,0.854,0.854,"NC(CO)(CO)CO [Tris, 2-amino-2-hydroxymethyl-1,3-propanediol]"
0.861,0.858,0.852,0.634,0.052,0.029,0.856,0.852,0.854,Phosphate

Compound,"optical density at 450 nm, Time 0 Min [1]","optical density at 450 nm, Time 5 Min [1]","optical density at 450 nm, Time 10 Min [1]","optical density at 450 nm, Time 0 Min [2]","optical density at 450 nm, Time 5 Min [2]","optical density at 450 nm, Time 10 Min [2]","optical density at 450 nm, Time 0 Min (no lysozyme)","optical density at 450 nm, Time 5 Min (no lysozyme)","optical density at 450 nm, Time 10 Min (no lysozyme)"
Borate,0.872,0.681,0.390,0.619,0.053,0.034,0.853,0.853,0.854
